In PMC7503767, “Alkoxyamines Designed as Potential Drugs against Plasmodium and Schistosoma Parasites” (Molecules, 2020):
Read-outs that look alike come from different tables or passages of the source.

What was measured:
[1] = test system: Adult S. mansoni; assay: In vitro antischistosomal activity on adult worms; assay type: cell-based, Schistosoma mansoni; settings: for Time for the death of 100% worms / S. mansoni Mean Survival Time: adult S. mansoni, observation up to 8 h; for Time for the death of 100% worms / Mean (±SD) survival time – Adult S. mansoni: 100 µg/mL; for S. mansoni Mean Survival Time: single dose 100 µg/mL; for Mean (±SD) survival time – Adult S. mansoni: observation up to 8 h (Table S1)
Text: The NMRI strain of Schistosoma mansoni was used for the experimentations. The parasite was maintained on an albino variety of Biomphalaria glabrata from Brazil (intermediate host) and in Golden Hamsters, Mesocricetus auratus (Janvier Labs, Le Genest-Saint-Isle, France). Detailed methods, for mollusk and hamster infections and for parasite recovery, were previously described.
Adult worms were recovered between 42 and 47 days after infection by hepatic perfusion technique. Twenty to fifty adult worms were disposed in 12-well Falcon® plate containing 2 mL of RPMI 1640 (supplemented with L-glutamine and Hepes 25 mM) and stored in an incubator chamber (37 °C; 5% CO2). Drug preparation started with dissolution of the drug in DMSO to give a 100 mg/mL stock solution. The dilution was complemented with Tween 80 and RPMI in order to obtain the following final ratio dilution: RPMI 1640/Tween 80/DMSO, 1000/0.95/3.8, v/v/v. The drug solution was added to Falcon plates that contained adult worms. The S. mansoni cultures were then incubated with each drug at a final concentration of 100 µg/mL. Positive control was carried out with a solution of praziquantel (Merck KGaA, Darmstadt, Germany) at a concentration of 100 µg/mL. Negative control was carried out with the same RPMI 1640/Tween 80/DMSO solution, but without any drug. Each test was performed in duplicate. Every hour, moving worms were counted in order to define the percentage of survivors. Parasites showing no body contractions during a 30 s observation were considered as dead. Observations were extended to 8 h. Mean survival times (± standard deviation) were calculated for each drug using Kaplan–Meier survival analyses.

[2] = test system: P. falciparum F32-TEM (artemisinin-sensitive strain); assay: Standard chemosensitivity assay (SYBR Green I), F32-TEM; assay type: cell-based, Plasmodium falciparum
Procedure: (§1) F32-ART5, an artemisinin-resistant strain and F32-TEM, an artemisinin-sensitive strain, were obtained from the parental clone F32-Tanzania, respectively under regular drug pressure cycles of increasing artemisinin concentrations for 5 years and without any artemisinin pressure. After these drug pressure cycles allowing selection of the F32-ART5 strain, regular drug pressures were performed to maintain its phenotype. […] Briefly, parasites were cultured in RPMI 1640 (Fisher Scientific, Waltham, Illkirch-Graffenstaden, France) supplemented with 5% type AB human serum (Etablissement français du Sang, Toulouse, France) and adjusted at a parasitemia of 1% and 2% hematocrit with type O human at 37 °C and 5% CO2. Parasite development was daily monitored by Giemsa staining.
(§2) Briefly, for the determination of IC50 values, the chemosensitivity assay was carried out in 96-well culture plates on D-sorbitol ring-stage synchronized parasites and antiplasmodial activities were evaluated using the SYBR Green I method. Drug testing was performed in triplicates in a dose range of 5 to 7 concentrations. […] Parasites were left to proliferate with the given compounds for 48 h at 37 °C and 5% CO2. After this period, pellets were washed 3 times in sterile PBS prior to putting the plates at −20 °C overnight to lyse all red blood cells. The following day, the plates were thawed at room temperature, 100 µL of each well was transferred into a black 96-well plate to which another 100 µL of 2× PBS-diluted SYBR Green I (Sigma-Aldrich) was added and left to incubate for 2 h at room temperature prior to reading the plates on BioTek FL× 800 Microplate Fluorescence Reader (λexcitation = 485 nm, λemission = 528 nm).
(§3) IC50 values were determined using GraphPad Prism by drawing the curve % inhibition vs. [Drug] and using a four-parameter dose–response curve with the following equation: Y=Bottom+ Top−Bottom/1+x^Hill Slope/IC50Hill Slope

[3] = test system: P. falciparum F32-ART5 (artemisinin-resistant strain); assay: Standard chemosensitivity assay (SYBR Green I), F32-ART5; assay type: cell-based, Plasmodium falciparum
Procedure: as §1, §2, §3

[4] = test system: Vero cells; assay: Cytotoxicity assay (MTT); settings: for Selectivity Index: ratio cytotoxicity (Vero)/activity on Plasmodium; for IC50: read-out: Cytotoxicity Mean IC50, Vero cell lines, 48 h, MTT
Procedure: Vero cells were cultured in MEM (Dutscher, Brumath, France) supplemented with 10% fetal bovine serum, 1× non-essential amino acids, 100 U/mL, 100 µg/mL penicillin/streptomycin, and 2 mM L-glutamine at 37 °C in a humidified 5% CO2 atmosphere. […] At this time, each well was microscope-examined for detection of possible precipitate formation prior to remove the supernatant by flicking the plate. 100 µL of a 0.5 mg/mL PBS-dissolved MTT tetrazolium (stock solution at 5 mg/mL) was then added to each well [48]. The plates were then incubated for 1 h at 37 °C and 5% CO2 prior to removing the supernatant and adding 100 µL of DMSO. Plates were gently shaken to dissolve formazan crystals resulting from the MTT tetrazolium reduction by living cells and read at 570 nm with BioTek µQuant Microplate Spectrophotometer.

[5] = test system: P. falciparum chloroquine-resistant strain FcB1-Columbia; assay: Antiplasmodial screen at 10 µM and chemosensitivity assay (SYBR Green I), FcB1-Columbia; assay type: cell-based, Plasmodium falciparum
[6] = Homolysis of the NO–C bond measured by EPR
Procedure: Homolysis rate constants kd’ were measured by EPR and estimated using Equation (1) as reported many times in the literature. Further, Ea and kd were estimated using Equation (2). (1) ln([nitroxide]∞−[nitroxide]t/[nitroxide]∞)=−kd·t (2) Ea=−RT ln([…] kd′ )

[7] = read-out: P. falciparum Strains Mean IC50, F32-TEM, 48 h, ^1 n = 1, ^2 n = 2
[8] = read-out: P. falciparum Strains Mean IC50, F32-ART5; 48 h; ^1 n = 1, ^2 n = 2
[9] = Plasmodium falciparum, FCB1, read-out: IC50 on P. falciparum, FcB1-Columbia strain
[10] = 48 h; ^1 n = 1, ^2 n = 2; read-out: P. falciparum Strains Mean IC50, F32-ART5
[11] = FcB1-Columbia strain, read-out: IC50 on P. falciparum

## CCOP(=O)(OCC)C(N(OC(C)c1cc(-c2ccccn2)nc(-c2ccccn2)c1)C(C)(C)C=O)C(C)(C)C (centres unmarked) [(RR/SS)-7F, Diethyl(1-((1-([2,2′:6′,2′′-terpyridin]-4′-yl)ethoxy)(2-methyl-1-oxopropan-2-yl)amino)-2,2-dimethylpropyl)phosphonate]
[1]
  Time for the death of 100% worms: 3 h
  S. mansoni Mean Survival Time: 2.5 ± 0.1 h
[2]; [7]
  IC50: 940 nM
[3]; [8]
  IC50: 850 nM
[4]
  Selectivity Index: 1
  IC50: 1.2 ± 1.3 µM

## CCOP(=O)(OCC)C(N(OC(C)c1cc(-c2ccccc2)cc(-c2ccccc2)c1)C(C)(C)CO)C(C)(C)C (centres unmarked) [(RR/SS)-2G, Diethyl(1-((1-([1,1′:3′,1′′-terphenyl]-5′-yl)ethoxy)(1-hydroxy-2-methylpropan-2-yl)amino)-2,2-dimethylpropyl)phosphonate]
[1]
  Time for the death of 100% worms: 7 h
[5]; [9]
  IC50: > 10000 nM
[6]; MeOH/water 2:1 pH = 7.0
  activation energy Ea: 121.1 kJ/mol
  re-estimated homolysis rate constant kd at 120 °C: 19.5 10^−3 s^−1
[6]; MeOH/water 2:1 pH = 7.0, 81 °C
  homolysis rate constant kd′: 3.3 10^−4s^−1
[6]; buffer, pH 7, half-lifetime t1/2 at 37 °C, MeOH/water 2:1 pH = 7.0
  half-life: 12.3 days
[6]; half-lifetime t1/2 at 37 °C, t-BuPh
  half-life: 7.5 days
[6]; t-BuPh
  activation energy Ea: 120.8 kJ/mol
  re-estimated homolysis rate constant kd at 120 °C: 21.1 10^−3 s^−1
[6]; t-BuPh, 81 °C
  homolysis rate constant kd′: 3.8 10^−4s^−1

## CCOP(=O)(OCC)C(N(OC(C)c1ccc2ccc3cccnc3c2n1)C(C)(C)C)C(C)(C)C (centres unmarked) [1J]
[1]
  Mean (±SD) survival time – Adult S. mansoni: 1.1 ± 0.05 h
  Time for the death of 100% worms: 2 h
  S. mansoni Mean Survival Time: 1.1 ± 0.1 h
[2]; 48 h, ^1 n = 1, ^2 n = 2, read-out: P. falciparum Strains Mean IC50, F32-TEM
  IC50: 2900 nM
[3]; [10]
  IC50: 2300 nM
[5]; [11]
  IC50: 3100 ± 1100 nM
[4]
  IC50: 6.2 ± 1.2 µM

## CCOP(=O)(OCC)C(N(OC(CN)c1ccccc1)C(C)(C)C)C(C)(C)C (centres unmarked) [(RS/SR)-1A]
[1]
  Mean (±SD) survival time – Adult S. mansoni: 1.0 ± 0.05 h
  Time for the death of 100% worms: 1 h
  S. mansoni Mean Survival Time: 1.0 ± 0.05 h
[4]; listed as (RS/SR)-1A
  IC50: 21 µM

## CCOP(=O)(OCC)C(N(OC(C)c1cc(-c2ccccn2)nc(-c2ccccn2)c1)C(C)(C)CO)C(C)(C)C (centres unmarked) [2F]
[1]
  S. mansoni Mean Survival Time: 2.1 to 2.5 h
[2]; Plasmodium falciparum, F32, read-out: IC50 on the F32 strains, F32-TEM and F32-ART5 taken together
  IC50: 400 to 600 nM
[5]; [9]
  IC50: 200 to 300 nM
[4]
  Selectivity Index: 1

## CCOP(=O)(OCC)C(N(OC(CN)c1ccccc1)C(C)(C)C)C(C)(C)C (centres unmarked) [(RR/SS)-1A]
[5]; [11]
  IC50: > 10000 nM
[4]; listed as (RR/SS)-1A
  IC50: > 100 µM

## CCOP(=O)(OCC)C(N(OC(C)c1ccnc2c1ccc1cccnc12)C(C)(C)C)C(C)(C)C (centres unmarked) [1K]
[1]
  Mean (±SD) survival time – Adult S. mansoni: 1.1 ± 0.04 h
  Time for the death of 100% worms: 2 h
  S. mansoni Mean Survival Time: 1.1 ± 0.0 h
[3]; [10]
  IC50: 1600 nM
[5]; [11]
  IC50: 1300 ± 300 nM
[4]
  IC50: 1.1 ± 0.7 µM

## CCOP(=O)(OCC)C(N(OC(C)c1c[nH]cn1)C(C)(C)C)C(C)(C)C (centres unmarked) [(RR/SS)-1p]
[1]
  Mean (±SD) survival time – Adult S. mansoni: 1.0 ± 0.05 h
  Time for the death of 100% worms: 1 h
  S. mansoni Mean Survival Time: 1.0 ± 0.05 h
[4]
  IC50: > 100 µM

## CCOP(=O)(OCC)C(N(OC(C)c1cc(-c2ccccn2)nc(-c2ccccn2)c1)C(C)(C)C(=O)O)C(C)(C)C (centres unmarked) [(RR/SS)-4F, 2-((1-([2,2′:6′,2′′-Terpyridin]-4′-yl)ethoxy)(1-(diethoxyphosphoryl)-2,2-dimethylpropyl)amino)-2-methylpropanoic acid]
[1]
  Mean (±SD) survival time – Adult S. mansoni: > 8 h
  Time for the death of 100% worms: > 8 h
  S. mansoni Mean Survival Time: > 8 h
[2]; [7]
  IC50: 4600 nM
[3]; [8]
  IC50: 4600 nM
[4]
  Selectivity Index: 2
  IC50: 8.1 µM
